Measured values published in BindingDB's records for doi:10.1016/j.bmcl.2010.11.050 (The University of Tokushima Graduate School, 2010).

Biological target: Carbonic anhydrase 2 (Bos taurus, UniProt P00921)
Test: Binding affinity to bovine carbonic anhydrase 2

Chain of Carbonic anhydrase 2 (P00921 whole entry): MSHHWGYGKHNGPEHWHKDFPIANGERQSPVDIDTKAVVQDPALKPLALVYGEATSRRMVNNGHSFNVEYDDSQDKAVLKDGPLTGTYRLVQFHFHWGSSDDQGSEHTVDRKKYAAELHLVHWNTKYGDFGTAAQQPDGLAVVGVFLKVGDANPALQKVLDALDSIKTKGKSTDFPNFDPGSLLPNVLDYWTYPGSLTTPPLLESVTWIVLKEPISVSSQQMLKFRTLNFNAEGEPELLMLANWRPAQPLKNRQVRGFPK

Structure (SMILES) | Ki [nM]
Cc1ccc(S(N)(=O)=O)cc1 | 58
NS(=O)(=O)c1ccc([N+](=O)[O-])c(C(F)(F)F)c1 | 1.7
NS(=O)(=O)c1ccc(Cl)c(Cl)c1 [3,4-Dichloro-Benzenesulfonamide] | 2.5
NS(=O)(=O)c1cccc(Cl)c1 [3-Chloro-Benzenesulfonamide] | 16
Cc1cccc(S(N)(=O)=O)c1 [3-Methylbenzenesulfonamide] | 132
NS(=O)(=O)c1cccc([N+](=O)[O-])c1 [3-Nitro-benzenesulfonamide] | 8.5
CC(=O)c1ccc(S(N)(=O)=O)cc1 [4-Acetyl-Benzenesulfonamide] | 17
NS(=O)(=O)c1ccc(Cl)c([N+](=O)[O-])c1 [4-Chloro-3-nitro-benzenesulfonamide] | 2
N#Cc1ccc(S(N)(=O)=O)cc1 [4-Cyano-Benzenesulfonamide] | 7.1
COc1ccc(S(N)(=O)=O)cc1 [4-Methoxy-Benzenesulfonamide] | 102
CNc1ccc(S(N)(=O)=O)cc1 [4-Methylamino-benzenesulfonamide] | 288
NS(=O)(=O)c1ccc(Cl)cc1 [p-Halide-sulfanilamide derivative, 2] | 14
NS(=O)(=O)c1ccc(Br)cc1 [p-Halide-sulfanilamide derivative, 2a] | 14
